The numbers were not newly measured in patent US20040259736A1, “Biodegradable solid preparation of a phytopathologicalagent with delayed active substance release” (priority 2001, published 2004), which cites them from elsewhere.

Converted amounts (≈) assume the structure as drawn.

With `CN/C(=N\[N+](=O)[O-])NCc1cnc(Cl)s1` [Clothianidin, (E)-1-(2-chlorothiazol-5-ylmethyl)-3-methyl-2-nitroguanidine], the solubility in water was 270 µg/mL (≈ 1080 µM).

Regarding `CNC(=O)C(=NOC)c1ccccc1CO/N=C(\C)C(=NOC)/C(C)=N/OC` [II-4, N-Methyl-2-(methoxyimino)-2-{2-[(3E,6E)-5-(methoxyimino)-4,6-dimethyl-2,8-dioxa-3,7-diazanona-3,6-dien-1-yl]phenyl}-acetamide], the solubility in water is 80 µg/mL (≈ 204 µM).

In the case of `CNC(=N[N+](=O)[O-])NCC1CCOC1` (stereo not shown) [MTI-446], the solubility in water was 54000 µg/mL (≈ 267000 µM) and the “solubility in water (in words)” value is given as “freely soluble in water”.
